Columns and labels:
mKC = experiment: Mouse in vivo cytokine mKC induction (plasma, Searchlight multiplexed cytokine array); details: RDVs containing luciferase siRNA; plasma 3 hours post dose; relative to PBS control
Description: (§1) FIG. 2: Mouse in vivo Cytokine mKC Induction 3 hour post injection. LNPs utilizing compound 4, in the nominal compositions described immediately above, were evaluated for in vivo efficacy and induction of inflammatory cytokines in a luciferase mouse model. The siRNA targets the mRNA transcript for the firefly (Photinus pyralis) luciferase gene (Accession #M15077). […] The in vivo luciferase model employs a transgenic mouse in which the firefly luciferase coding sequence is present in all cells. ROSA26-LoxP-Stop-LoxP-Luc (LSL-Luc) transgenic mice licensed from the Dana Farber Cancer. Institute are induced to express the Luciferase gene by first removing the LSL sequence with a recombinant Ad-Cre virus (Vector Biolabs). Due to the organo-tropic nature of the virus, expression is limited to the liver when delivered via tail vein injection. Luciferase expression levels in liver are quantitated by measuring light output, using an IVIS imager (Xenogen) following administration of the luciferin substrate (Caliper Life Sciences). Pre-dose luminescence levels are measured prior to administration of the RDVs. […] In vivo efficacy results are expressed as % inhibition of luminescence relative to pre-dose luminescence levels. Plasma cytokine levels were determined using the Searchlight multiplexed cytokine chemoluminescent array (Pierce/Thermo). […]

IL-6 = experiment: Mouse in vivo cytokine IL-6 induction (plasma, Searchlight multiplexed cytokine array); details: RDVs containing luciferase siRNA; plasma 3 hours post dose; relative to PBS control
Description: as §1, with “1:” for “2:”, “IL-6” for “mKC”

[1] = tested on: mRNA transcript for the firefly (Photinus pyralis) luciferase gene; experiment: In vivo efficacy in luciferase mouse model (bioluminescence, IVIS imager); details: tail vein injection; for Average % Inhibition of Bioluminescence: LNPs prepared from the cationic lipid with Luc siRNA, 3 mg Kg^−1, imaged 48 hours post dose, relative to pre-dose luminescence
Description: LNPs utilizing compound 4, in the nominal compositions described immediately above, were evaluated for in vivo efficacy and induction of inflammatory cytokines in a luciferase mouse model. The siRNA targets the mRNA transcript for the firefly (Photinus pyralis) luciferase gene (Accession #M15077). […] The in vivo luciferase model employs a transgenic mouse in which the firefly luciferase coding sequence is present in all cells. ROSA26-LoxP-Stop-LoxP-Luc (LSL-Luc) transgenic mice licensed from the Dana Farber Cancer. Institute are induced to express the Luciferase gene by first removing the LSL sequence with a recombinant Ad-Cre virus (Vector Biolabs). Due to the organo-tropic nature of the virus, expression is limited to the liver when delivered via tail vein injection. Luciferase expression levels in liver are quantitated by measuring light output, using an IVIS imager (Xenogen) following administration of the luciferin substrate (Caliper Life Sciences). Pre-dose luminescence levels are measured prior to administration of the RDVs. Luciferin in PBS (15 mg/mL) is intraperitoneally (IP) injected in a volume of 150 uL. After a four minute incubation period mice are anesthetized with isoflurane and placed in the IVIS imager. The RDVs (containing siRNA) in PBS vehicle were tail vein injected n a volume of 0.2 mL. Final dose levels ranged from 0.3 to 3 mg/kg siRNA. PBS vehicle alone was dosed as a control. Three hours post dose, mice were bled retro-orbitally to obtain plasma for cytokine analysis. Mice were imaged 48 hours post dose using the method described above. Changes in luciferin light output directly correlate with luciferase mRNA levels and represent an indirect measure of luciferase siRNA activity. In vivo efficacy results are expressed as % inhibition of luminescence relative to pre-dose luminescence levels. Plasma cytokine levels were determined using the Searchlight multiplexed cytokine chemoluminescent array (Pierce/Thermo). Systemic administration of the luciferase siRNA RDVs decreased luciferase expression in a dose dependant manner.

## CCCCCCCCOC[C@H](CN(C)C)OCCCCO[C@H]1CC[C@@]2(C)C(=CC[C@H]3[C@@H]4CC[C@H]([C@H](C)CCCC(C)C)[C@@]4(C)CC[C@@H]32)C1 [Compound 4, (2S)-2-{4-[(3β)-cholest-5-en-3-yloxy]butoxy}-N,N-dimethyl-3-(octyloxy)propan-1-amine]
mKC
  Mouse plasma level of cytokine mKC: minimal cytokine induction
IL-6
  Mouse plasma level of cytokine IL-6: minimal cytokine induction
[1]
  Average % Inhibition of Bioluminescence: 87%
[1]; RDVs containing luciferase siRNA, 0.3 to 3 mg/kg siRNA, 48 hours post dose
  In vivo efficacy (decrease of luciferase expression): Greater efficacy

## CCCCC/C=C\C/C=C\CCCCCCCCOCC(CN(C)C)OCCCCCCCCO[C@H]1CC[C@@]2(C)C(=CC[C@H]3[C@@H]4CC[C@H]([C@H](C)CCCC(C)C)[C@@]4(C)CC[C@@H]32)C1 (stereo partly shown) [Compound 12, S-Octyl CLinDMA, reference compound]
mKC
  Mouse plasma level of cytokine mKC: significantly increased
IL-6
  Mouse plasma level of cytokine IL-6: significantly increased
[1]
  Average % Inhibition of Bioluminescence: 76%
